Blank lines part the entries; values can stand above or below the molecule they belong to.
How the values were obtained:
Test in all cases: Competitive isoTOP-ABPP, cell lysates;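 on isoTOP-ABPP reactivity profile ratio, O00170 C122: Heavy/light ratio DMSO over fragment-treated so higher means more cysteine engagement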
Format in all cases: binding
ADA C75 (P00813) = target: T1, ADA C75 (P00813) (Homo sapiens, UniProt P00813); settings: for R value (DMSO/fragment) / isoTOP-ABPP ratio, P00813_C75: 500 μM, invitro, ramos; for isoTOP-ABPP reactivity ratio, P00813_C75 / isoTOP-ABPP reactivity profile ratio, P00813_C75: 500 μm, in-vitro_ramos
T1 sequence (P00813 1-363): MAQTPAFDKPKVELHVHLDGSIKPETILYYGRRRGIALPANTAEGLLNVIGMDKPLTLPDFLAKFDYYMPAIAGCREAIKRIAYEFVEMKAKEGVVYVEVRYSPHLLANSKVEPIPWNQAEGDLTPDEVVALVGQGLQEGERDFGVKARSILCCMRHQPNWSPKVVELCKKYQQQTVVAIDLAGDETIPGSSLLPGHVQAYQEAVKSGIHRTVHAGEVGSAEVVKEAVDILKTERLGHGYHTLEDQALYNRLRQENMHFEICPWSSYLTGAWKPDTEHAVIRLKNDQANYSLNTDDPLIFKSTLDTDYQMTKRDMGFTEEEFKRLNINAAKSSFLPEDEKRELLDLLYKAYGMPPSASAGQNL

IDH1 C269 (O75874) = IDH1 C269 (O75874) (Homo sapiens, UniProt O75874); settings: for R value (DMSO/fragment) / isoTOP-ABPP ratio, O75874_C269: 500 μM; for isoTOP-ABPP ratio (reactivity profile), O75874_C269: 500 μm in-vitro ramos_231
IDH1 C269 (O75874), sequence (O75874 whole entry, the tested form may be a part): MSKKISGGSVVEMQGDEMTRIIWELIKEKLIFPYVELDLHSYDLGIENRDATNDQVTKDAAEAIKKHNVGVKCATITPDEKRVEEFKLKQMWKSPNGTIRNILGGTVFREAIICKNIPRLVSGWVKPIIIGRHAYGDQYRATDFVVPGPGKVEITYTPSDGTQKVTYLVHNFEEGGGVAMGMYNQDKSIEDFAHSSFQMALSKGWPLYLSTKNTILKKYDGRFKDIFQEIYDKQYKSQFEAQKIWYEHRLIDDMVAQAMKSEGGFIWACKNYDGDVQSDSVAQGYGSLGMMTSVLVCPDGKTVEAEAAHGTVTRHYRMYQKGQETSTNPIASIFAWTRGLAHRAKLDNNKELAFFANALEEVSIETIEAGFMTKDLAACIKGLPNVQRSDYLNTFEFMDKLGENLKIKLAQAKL

AIP C122 (O00170) = target: T2, AIP C122 (O00170) (Homo sapiens, UniProt O00170); settings: for R value (DMSO/fragment) / isoTOP-ABPP ratio, O00170_C122: 500 μM; for isoTOP-ABPP reactivity ratio, O00170_C122 / isoTOP-ABPP reactivity profile ratio, O00170_C122: 500 μm;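 on isoTOP-ABPP reactivity profile ratio, O00170 C122: Heavy/light ratio DMSO over fragment-treated so higher means more cysteine engagement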
T2 sequence (O00170 1-330): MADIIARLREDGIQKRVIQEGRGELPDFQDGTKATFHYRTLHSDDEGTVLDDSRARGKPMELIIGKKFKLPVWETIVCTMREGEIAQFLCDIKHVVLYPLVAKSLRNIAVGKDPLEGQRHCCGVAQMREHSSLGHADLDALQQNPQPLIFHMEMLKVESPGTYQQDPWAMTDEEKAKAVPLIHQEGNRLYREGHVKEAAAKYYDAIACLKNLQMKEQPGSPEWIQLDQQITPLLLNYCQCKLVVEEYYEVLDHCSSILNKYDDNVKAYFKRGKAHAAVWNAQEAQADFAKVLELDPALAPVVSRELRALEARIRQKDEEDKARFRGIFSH

USP22 C171 (Q9UPT9) = target: T3, USP22 C171 (Q9UPT9) (Homo sapiens, UniProt Q9UPT9); settings: for isoTOP-ABPP ratio (reactivity profile), Q9UPT9_C171: 500 μm in-vitro ramos
T3 sequence (Q9UPT9 1-525): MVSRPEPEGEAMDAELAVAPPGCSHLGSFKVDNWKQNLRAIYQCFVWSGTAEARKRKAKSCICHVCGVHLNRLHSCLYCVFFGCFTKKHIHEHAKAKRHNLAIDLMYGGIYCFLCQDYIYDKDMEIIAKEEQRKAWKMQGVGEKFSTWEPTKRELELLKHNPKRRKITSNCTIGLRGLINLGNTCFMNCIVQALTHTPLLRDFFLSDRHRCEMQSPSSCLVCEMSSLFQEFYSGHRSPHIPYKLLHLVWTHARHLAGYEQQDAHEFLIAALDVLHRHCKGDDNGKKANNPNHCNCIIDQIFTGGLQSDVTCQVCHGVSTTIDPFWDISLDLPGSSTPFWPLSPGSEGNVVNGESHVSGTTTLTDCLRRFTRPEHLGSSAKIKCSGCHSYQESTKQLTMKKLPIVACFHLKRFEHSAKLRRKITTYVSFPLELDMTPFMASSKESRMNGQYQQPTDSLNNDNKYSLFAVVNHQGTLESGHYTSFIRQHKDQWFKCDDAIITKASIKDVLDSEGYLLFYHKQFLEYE

SMILES: C=CC(=O)N(c1ccccc1)c1ccc(Br)cc1 [compound 5]
isoTOP-ABPP ratio, P00813_C75 (ADA C75 (P00813)): 2.5
isoTOP-ABPP ratio, O75874_C269 (IDH1 C269 (O75874); invitro, ramos): 0.8
isoTOP-ABPP ratio, Q9UPT9_C171 (USP22 C171 (Q9UPT9); 500 μM, invitro, ramos): 20.0

SMILES: CC(C)CCOCCNC(=O)CCl [compound 27]
isoTOP-ABPP ratio (reactivity profile), P00813_C75 (ADA C75 (P00813); 500 μm in-vitro ramos): 1.0
isoTOP-ABPP ratio (reactivity profile), P00813_C75 (ADA C75 (P00813); 500 μm in-vitro ramos_231): 1.1
isoTOP-ABPP ratio (reactivity profile), O00170_C122 (AIP C122 (O00170); 500 μm in-vitro ramos): 1.0
isoTOP-ABPP ratio (reactivity profile), O00170_C122 (AIP C122 (O00170); 500 μm in-vitro ramos_231): 0.4
isoTOP-ABPP ratio (reactivity profile), Q9UPT9_C171 (USP22 C171 (Q9UPT9)): 1.2

SMILES: O=C(CCl)N1CCOCC1 [compound 22]
isoTOP-ABPP ratio (reactivity profile), P00813_C75 (ADA C75 (P00813); 500 μm in-vitro ramos): 1.3
isoTOP-ABPP ratio (reactivity profile), O75874_C269 (IDH1 C269 (O75874)): 1.0
isoTOP-ABPP ratio (reactivity profile), O00170_C122 (AIP C122 (O00170); 500 μm in-vitro ramos): 1.1
isoTOP-ABPP ratio (reactivity profile), O00170_C122 (AIP C122 (O00170); 500 μm in-vitro ramos_231): 1.3
isoTOP-ABPP ratio (reactivity profile), Q9UPT9_C171 (USP22 C171 (Q9UPT9)): 1.1

SMILES: O=C(CCl)Nc1cc(C(F)(F)F)cc(C(F)(F)F)c1 [compound 3]
R value (DMSO/fragment) (ADA C75 (P00813)): 1.5
R value (DMSO/fragment) (IDH1 C269 (O75874); in vitro, MDA-MB-231): 20.0
R value (DMSO/fragment) (IDH1 C269 (O75874); invitro, ramos): 1.0
R value (DMSO/fragment) (AIP C122 (O00170); in vitro, MDA-MB-231): 7.0
R value (DMSO/fragment) (AIP C122 (O00170); invitro, ramos): 3.1

SMILES: O=C(CCl)NC(=O)NC12CC3CC(CC(C3)C1)C2 [compound 12]
isoTOP-ABPP ratio, P00813_C75 (ADA C75 (P00813)): 0.7
isoTOP-ABPP ratio, O00170_C122 (AIP C122 (O00170); invitro, ramos): 1.3
isoTOP-ABPP ratio, Q9UPT9_C171 (USP22 C171 (Q9UPT9); 500 μM, invitro, ramos): 4.1

SMILES: O=C(CCl)NC12CC3CC(CC(C3)C1)C2 [compound 21]
isoTOP-ABPP ratio (reactivity profile), P00813_C75 (ADA C75 (P00813); 500 μm in-vitro ramos): 1.3
isoTOP-ABPP ratio (reactivity profile), O75874_C269 (IDH1 C269 (O75874)): 1.5
isoTOP-ABPP ratio (reactivity profile), O00170_C122 (AIP C122 (O00170); 500 μm in-vitro ramos_231): 1.4

SMILES: CC(C)(C)c1cc(NC(=O)CCl)on1 [compound 32]
isoTOP-ABPP reactivity ratio, P00813_C75 (ADA C75 (P00813)): 1.7
isoTOP-ABPP reactivity ratio, O00170_C122 (AIP C122 (O00170); in-vitro_ramos): 1.9
isoTOP-ABPP reactivity ratio, O00170_C122 (AIP C122 (O00170); in-vitro_ramos_231): 3.7
isoTOP-ABPP reactivity ratio, Q9UPT9_C171 (USP22 C171 (Q9UPT9); 500 μm, in-vitro_ramos): 9.3

SMILES: C=CC(=O)N(c1ccccc1)C1CCCCC1 [compound 46]
isoTOP-ABPP reactivity profile ratio, O75874_C269 (IDH1 C269 (O75874); 500 μm, in-vitro_ramos_231): 0.6

SMILES: N#CC(=Cc1ccc(-c2ccccc2Cl)o1)C(N)=O [compound 42]
isoTOP-ABPP reactivity profile ratio, P00813_C75 (ADA C75 (P00813)): 0.8
isoTOP-ABPP reactivity profile ratio, O00170_C122 (AIP C122 (O00170); in-vitro_ramos): 0.8
isoTOP-ABPP reactivity profile ratio, Q9UPT9_C171 (USP22 C171 (Q9UPT9); 500 μm, in-vitro_ramos): 1.0

Results, then the molecule that gave them:

R value (DMSO/fragment) (ADA C75 (P00813)): 7.3
R value (DMSO/fragment) (IDH1 C269 (O75874); in vitro, MDA-MB-231): 20.0
R value (DMSO/fragment) (AIP C122 (O00170); in vitro, MDA-MB-231): 12.5
R value (DMSO/fragment) (AIP C122 (O00170); invitro, ramos): 6.7
R value (DMSO/fragment) (USP22 C171 (Q9UPT9); 500 μM, invitro, ramos): 7.1
SMILES: COc1ccc2c(c1)CCCN2C(=O)CCl [compound 2]

isoTOP-ABPP reactivity ratio, P00813_C75 (ADA C75 (P00813)): 1.1
isoTOP-ABPP reactivity ratio, O00170_C122 (AIP C122 (O00170); in-vitro_ramos_231): 1.0
SMILES: O=C(CCl)N(Cc1ccc(F)cc1)C12CC3CC(CC(C3)C1)C2 [compound 34]

isoTOP-ABPP ratio, P00813_C75 (ADA C75 (P00813)): 1.0
isoTOP-ABPP ratio, O75874_C269 (IDH1 C269 (O75874); invitro, 231): 20.0
isoTOP-ABPP ratio, O00170_C122 (AIP C122 (O00170); invitro, ramos): 1.7
isoTOP-ABPP ratio, Q9UPT9_C171 (USP22 C171 (Q9UPT9); 500 μM, invitro, ramos): 3.8
SMILES: O=C(CCl)N1CCN(S(=O)(=O)c2ccccc2F)CC1 [compound 10]

isoTOP-ABPP reactivity ratio, P00813_C75 (ADA C75 (P00813)): 1.1
isoTOP-ABPP reactivity ratio, O75874_C269 (IDH1 C269 (O75874); 500 μm, in-vitro_ramos_231): 0.8
isoTOP-ABPP reactivity ratio, O00170_C122 (AIP C122 (O00170); in-vitro_ramos): 1.0
isoTOP-ABPP reactivity ratio, O00170_C122 (AIP C122 (O00170); in-vitro_ramos_231): 1.1
isoTOP-ABPP reactivity ratio, Q9UPT9_C171 (USP22 C171 (Q9UPT9); 500 μm, in-vitro_ramos): 1.4
isoTOP-ABPP reactivity ratio, Q9UPT9_C171 (USP22 C171 (Q9UPT9); 500 μm, in-vitro_ramos_231): 3.0
SMILES: Cc1ccc(C=C(C#N)C(=O)NCCN2CCOCC2)cc1 [compound 41]

isoTOP-ABPP reactivity ratio, P00813_C75 (ADA C75 (P00813)): 1.1
isoTOP-ABPP reactivity ratio, Q9UPT9_C171 (USP22 C171 (Q9UPT9); 500 μm, in-vitro_ramos): 1.5
SMILES: O=C(CCl)Nc1ccccc1C1CCCCCC1 [compound 35]

isoTOP-ABPP reactivity profile ratio, P00813_C75 (ADA C75 (P00813)): 1.2
isoTOP-ABPP reactivity profile ratio, O00170_C122 (AIP C122 (O00170); in-vitro_ramos): 1.4
SMILES: O=C(CCl)Nc1ccc(-c2ccccc2)cc1 [compound 52]

isoTOP-ABPP ratio, P00813_C75 (ADA C75 (P00813)): 7.5
isoTOP-ABPP ratio, O75874_C269 (IDH1 C269 (O75874); invitro, 231): 1.1
isoTOP-ABPP ratio, O75874_C269 (IDH1 C269 (O75874); invitro, ramos): 0.7
isoTOP-ABPP ratio, O00170_C122 (AIP C122 (O00170); invitro, ramos): 2.8
isoTOP-ABPP ratio, Q9UPT9_C171 (USP22 C171 (Q9UPT9); 500 μM, invitro, ramos): 8.2
SMILES: Cn1cc(S(=O)(=O)N2CCOCC2)cc1C(=O)NC(=O)CCl [compound 11]

isoTOP-ABPP ratio (reactivity profile), P00813_C75 (ADA C75 (P00813); 500 μm in-vitro ramos): 0.9
isoTOP-ABPP ratio (reactivity profile), O75874_C269 (IDH1 C269 (O75874)): 1.1
isoTOP-ABPP ratio (reactivity profile), O00170_C122 (AIP C122 (O00170); 500 μm in-vitro ramos): 1.2
isoTOP-ABPP ratio (reactivity profile), O00170_C122 (AIP C122 (O00170); 500 μm in-vitro ramos_231): 0.9
isoTOP-ABPP ratio (reactivity profile), Q9UPT9_C171 (USP22 C171 (Q9UPT9)): 1.3
SMILES: COc1ccccc1OCCNC(=O)CCl [compound 28]

isoTOP-ABPP reactivity profile ratio, O00170_C122 (AIP C122 (O00170); in-vitro_ramos): 0.9
SMILES: C=CC(=O)N1CCC(Cc2ccccc2)CC1 [compound 53]

— patent US10670605B2, “Cysteine reactive probes and uses thereof” (The Scripps Research Institute, priority 2015, dated 2020)
